{
  "source": "patent US8846914B2",
  "about": "“Compositions to effect neuronal growth” (Neuralstem, Inc., priority 2003, dated 2014)",
  "key": {"[1]": {"test_system": "human hippocampal stem cells", "assay": "Neuronal identification of mitotic cells (BrdU / TuJ1 co-staining)", "type": "cell-based", "settings": "BrdU during last forty-eight hours of two-week treatment; FIG. 13", "text": "FIG. 13 is a bar graph illustrating an example of neuronal identification of the mitotic cells in response to the compound treatment. Mitotic cells were labeled with BrdU during the last forty-eight hours of the two-week treatment with the test compounds. BrdU alone and BrdU together with TuJ1 as co-stained cells were quantified. Results from NSI-106 and LIF treatment are shown as an example. […] The bars represent the mean±SD from each of six wells.\nIn FIG. 13, mitotic cells are labeled with BrdU during the last forty-eight hours of a two-week treatment with the test compounds. BrdU alone and BrdU together with TuJ1 as co-stained cells are quantified.\nAs described in pending U.S. patent application Ser. No. 10/728,652, leukemia inhibitory factor (LIF), a cytokine growth factor, was selected from among several known neurotrophic factors as a positive control against which tested compounds can be compared. […] This effect is both consistent with the neural stem cell system in which the cells respond appropriately to the positive control by enhanced differentiation and/or mitosis, and achieves the objective of the assay method in which such cellular responses can be measured reproducibly and quantifiably.\nResults from NSI-106 and the positive control, LIF treatment are shown as an example. […] The bars represent the mean±SD from each of six wells."}, "[2]": {"test_system": "Differentiating hippocampal stem cells", "assay": "Committed neuronal progenitors (Ki-67 / TuJ1 co-staining)", "type": "cell-based, human", "settings": "treated for 10 days; FIG. 14", "experimental": "FIG. 14 is a micrograph illustrating an example of production of committed neuronal progenitors by NSI-106. Differentiating hippocampal stem cells were treated with NSI-106 for 10 days, fixed, and stained for Ki-67 protein as well as TuJ1. Ki-67 protein is an endogenous marker of mitosis.\nFIG. 14 illustrates committed neuronal progenitor production by NSI-106. Differentiating hippocampal stem cells are treated with NSI-106 for 10 days, fixed, and stained for Ki-67 protein to detect dividing cells as well as TuJ1 to detect cells that have differentiated into neurons, Ki-67 protein is an endogenous marker of mitosis."}},
  "data": [
    {"smiles": "CCCCNc1c(C2CCN(C(=O)CN(CC(C)C)S(C)(=O)=O)CC2)nc2cnccn12", "note": "[NSI-106]", "values": [
      {"measurement": "BrdU and TuJ1 co-stained mitotic cells", "setting": "[1]", "result": "produces mostly co-stained cells"},
      {"measurement": "Ki-67 and TuJ1 co-stained cells", "setting": "[2]", "result": "significant number of cells are co-stained"}
    ]}
  ]
}
